# Test results from paper PMC7914897, “Cytotoxic Potential of a-Azepano- and 3-Amino-3,4-SeCo-Triterpenoids” (International Journal of Molecular Sciences, 2021).
# How the values were obtained:
# [1] = test system: SR (Leukemia); assay: NCI-60 screen (SRB, 48 h); assay type: cell-based
# [2] = test system: LOX IMVI (Melanoma); assay: NCI-60 screen (SRB, 48 h); assay type: cell-based; settings: Homo sapiens
# [3] = test system: OVCAR-4 (Ovarian cancer); assay: NCI-60 screen (SRB, 48 h); assay type: cell-based; settings: Homo sapiens
# [4] = test system: MDA-MB-468 (Breast cancer); assay: cells; settings: Homo sapiens
# [5] = test system: Colon Cancer subpanel; assay: NCI-60 screen, subpanel; settings: Homo sapiens
# [6] = test system: Ovarian Cancer subpanel; assay: NCI-60 screen, subpanel; settings: Homo sapiens
# [7] = test system: Breast cancer subpanel; assay: NCI-60 screen, subpanel; settings: Homo sapiens
# [8] = test system: MOLT-4 (Leukemia); assay: NCI-60 screen (SRB, 48 h); settings: Homo sapiens
# [9] = test system: RPMI-8226 (Leukemia); assay: NCI-60 screen (SRB, 48 h); settings: Homo sapiens
# [10] = test system: EKVX (NSC lung cancer); assay: NCI-60 screen (SRB, 48 h); settings: Homo sapiens
# [11] = test system: HOP-92 (NSC lung cancer); assay: NCI-60 screen (SRB, 48 h); settings: Homo sapiens
# [12] = test system: NCI-H460 (NSC lung cancer); assay: NCI-60 screen (SRB, 48 h); settings: Homo sapiens
# [13] = test system: SW-620 (Colon cancer); assay: NCI-60 screen (SRB, 48 h); settings: Homo sapiens
# [14] = test system: SNB-75 (CNS cancer); assay: NCI-60 screen (SRB, 48 h); settings: Homo sapiens
# [15] = test system: U251 (CNS cancer); assay: NCI-60 screen (SRB, 48 h); settings: Homo sapiens
# [16] = test system: M14 (Melanoma); assay: NCI-60 screen (SRB, 48 h); settings: Homo sapiens
# [17] = test system: SK-MEL-28 (Melanoma); assay: NCI-60 screen (SRB, 48 h); settings: Homo sapiens
# [18] = test system: NCI/ADR-RES (Ovarian cancer); assay: NCI-60 screen (SRB, 48 h); settings: Homo sapiens
# [19] = test system: SK-OV-3 (Ovarian cancer); assay: NCI-60 screen (SRB, 48 h); settings: Homo sapiens
# [20] = test system: 786-0 (Renal cancer); assay: NCI-60 screen (SRB, 48 h); settings: Homo sapiens
# [21] = test system: ACHN (Renal cancer); assay: NCI-60 screen (SRB, 48 h); settings: Homo sapiens
# [22] = test system: RXF 393 (Renal cancer); assay: NCI-60 screen (SRB, 48 h); settings: Homo sapiens
# [23] = test system: T-47D (Breast cancer); assay: NCI-60 screen (SRB, 48 h); settings: Homo sapiens, T47D
structure (smiles),measurement,setting,value
"C=C(C)C1CCC2(CO)CCC3(C)C(CCC4C5(C)CCCNC(C)(C)C5CCC43C)C12 (stereo not drawn) [Compound 1, Azepanobetulin]",TGI,[1],3.79 µM
same,GI50,[1]; Homo sapiens,1.59 µM
same,IC (TGI),[2]; 48 h,3.03 µM
same,GI50,[2]; read-out: GI50,1.51 µM
same,IC (TGI),"[3]; OVCAR-4, 48 h",2.81 µM
same,GI50,"[3]; OVCAR-4, read-out: GI50",1.45 µM
same,GI50,[4]; MDA-MB-468,1.66 µM
same,IC (TGI),"[4]; MDA-MB-468, 48 h, read-out: TGI",3.38 µM
same,CC50,"[4]; MDA-MB-468, read-out: LC50",6.88 µM
same,IC (TGI),"[5]; 48 h, read-out: TGI MG_MID",3.01 µM
same,GI50,[5]; read-out: GI50 MG_MID,1.51 µM
same,CC50,[5]; read-out: LC50 MG_MID,5.98 µM
same,IC (TGI),"[6]; 48 h, read-out: TGI MG_MID",3.18 µM
same,GI50,[6]; read-out: GI50 MG_MID,1.65 µM
same,CC50,[6]; read-out: LC50 MG_MID,6.24 µM
same,IC (TGI),"[7]; 48 h, read-out: TGI MG_MID",3.55 µM
same,GI50,[7]; read-out: GI50 MG_MID,1.71 µM
same,CC50,[7]; read-out: LC50 MG_MID,11.5 µM
same,GI50,[8]; MOLT-4,1.79 µM
same,IC (TGI),"[8]; MOLT-4, 48 h, read-out: TGI",4.5 µM
same,CC50,"[8]; MOLT-4, read-out: LC50",> 100 µM
same,GI50,[9]; RPMI-8226,1.94 µM
same,IC (TGI),"[9]; RPMI-8226, 48 h, read-out: TGI",4.51 µM
same,CC50,"[9]; RPMI-8226, read-out: LC50",> 100 µM
same,GI50,[10],1.55 µM
same,IC (TGI),"[10]; 48 h, read-out: TGI",3.03 µM
same,CC50,[10]; read-out: LC50,5.92 µM
same,GI50,[11]; HOP-92,1.73 µM
same,IC (TGI),"[11]; HOP-92, 48 h, read-out: TGI",3.33 µM
same,CC50,"[11]; HOP-92, read-out: LC50",6.42 µM
same,GI50,[12]; NCI-H460,1.63 µM
same,IC (TGI),"[12]; NCI-H460, 48 h, read-out: TGI",3.21 µM
same,CC50,"[12]; NCI-H460, read-out: LC50",6.3 µM
same,GI50,[13]; SW-620,1.81 µM
same,IC (TGI),"[13]; SW-620, 48 h, read-out: TGI",3.41 µM
same,CC50,"[13]; SW-620, read-out: LC50",6.44 µM
same,GI50,[14]; SNB-75,1.54 µM
same,IC (TGI),"[14]; SNB-75, 48 h, read-out: TGI",2.91 µM
same,CC50,"[14]; SNB-75, read-out: LC50",5.5 µM
same,GI50,[15]; U-251,1.65 µM
same,IC (TGI),"[15]; U-251, 48 h, read-out: TGI",3.09 µM
same,CC50,"[15]; U-251, read-out: LC50",5.76 µM
same,GI50,[16]; M14,1.58 µM
same,IC (TGI),"[16]; M14, 48 h, read-out: TGI",3.13 µM
same,CC50,"[16]; M14, read-out: LC50",6.19 µM
same,GI50,[17]; SK-MEL-28,1.62 µM
same,IC (TGI),"[17]; SK-MEL-28, 48 h, read-out: TGI",3.15 µM
same,CC50,"[17]; SK-MEL-28, read-out: LC50",6.13 µM
same,GI50,[18],1.63 µM
same,IC (TGI),"[18]; 48 h, read-out: TGI",3.18 µM
same,CC50,[18]; read-out: LC50,6.18 µM
same,GI50,[19]; SK-OV-3,1.83 µM
same,IC (TGI),"[19]; SK-OV-3, 48 h, read-out: TGI",3.49 µM
same,CC50,"[19]; SK-OV-3, read-out: LC50",6.64 µM
same,GI50,[20]; 786-0,1.62 µM
same,IC (TGI),"[20]; 786-0, 48 h, read-out: TGI",3.16 µM
same,CC50,"[20]; 786-0, read-out: LC50",6.19 µM
same,GI50,[21],1.7 µM
same,IC (TGI),"[21]; 48 h, read-out: TGI",3.09 µM
same,CC50,[21]; read-out: LC50,5.61 µM
same,GI50,[22]; RXF 393,1.68 µM
same,IC (TGI),"[22]; RXF 393, 48 h, read-out: TGI",3.18 µM
same,CC50,"[22]; RXF 393, read-out: LC50",6.04 µM
same,GI50,[23],1.73 µM
same,IC (TGI),"[23]; 48 h, read-out: TGI",3.71 µM
same,CC50,[23]; read-out: LC50,7.96 µM
